US20230141403A1 (Hoffmann-La Roche Inc., priority 2020, published 2023)

Tested on: Acinetobacter baumannii ATCC17961
Assay: Antimicrobial susceptibility testing: 90% growth inhibitory concentration (IC90) determination
Assay type: cell-based
Conditions: Acinetobacter baumannii, ATCC17961, 16 h, 90% growth inhibitory concentration; Iso-Sensitest broth, optical density at 600 nm over 16h, 35±2° C.; read-out: AB ATCC 17961 IC90
In short: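 Compounds were twofold serially diluted (e.g. 50–0.097 μM final) in Iso-Sensitest broth with ~5×10^5 CFU/ml inoculum and incubated at 35±2 °C. OD600 was read every 20 min over 16 h. IC90 was derived from growth inhibition during logarithmic growth.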

## CN=S(=O)(c1ccc(Nc2nccn3c(-c4ccc(OC)c(F)c4F)cnc23)cc1)C1CCN(C(=O)[C@@H]2C[C@@H](O)CN2)CC1 (stereo partly drawn) [Example 74, (4-(4-((3-(2,3-difluoro-4-methoxyphenyl)imidazo[1,2-a]pyrazin-8-yl)amino)-N-methylphenylsulfonimidoyl)piperidin-1-yl)((2S,4R)-4-hydroxypyrrolidin-2-yl)methanone]
  IC90: 150 nM
